Assay results: US7153869B2, “Substituted amino acids as erythropoietin mimetics” (priority 1998, dated 2006)
Read-outs that look alike come from different tables or passages of the source.

Biological target: T1, EBP-Ig (N-terminal 225 amino acids of the human EPO receptor joined to an Ig heavy chain) (Homo sapiens, UniProt P19235)
T1 construct: Ig heavy chain (fusion partner); made in house; host or cells: NSO cells (secreted into conditioned media)
T1 sequence (P19235 25-250 limits assumed): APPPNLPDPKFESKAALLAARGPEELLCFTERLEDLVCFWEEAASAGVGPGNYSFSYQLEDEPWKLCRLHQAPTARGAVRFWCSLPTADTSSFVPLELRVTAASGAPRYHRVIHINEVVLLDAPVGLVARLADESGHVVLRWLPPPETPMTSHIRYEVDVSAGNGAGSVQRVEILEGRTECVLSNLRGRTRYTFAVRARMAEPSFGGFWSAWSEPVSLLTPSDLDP
Assay: Inhibition of [125I]EPO binding to immobilized EBP-Ig (EPO binding protein-Ig), scintillation Flash plate competition assay
Conditions: for % inh @ 50 μM (Inhibition of EPO binding to EBP-Ig): 50 μM test compound, average % inhibition; for % inh @ 50 μM (Inhibition of EPO binding to EBP-Ig) / IC30 μM (Inhibition of EPO binding to EBP-Ig) / IC50: 0.5 nM [125I]EPO; for IC30 μM (Inhibition of EPO binding to EBP-Ig): 0–500 μM test compound; for IC50: read-out: IC50, μM (Inhibition of EPO binding to EBP-Ig), concentration reducing corrected total binding to 50%
Source text: The interaction of biotin and streptavidin is frequently employed to capture and effectively immobilize reagents useful in assay protocols and has been employed here as a simple method to capture and immobilize EBP-Ig. EBP-Ig is initially randomly modified with an amine reactive derivative of biotin to produce biotinylated-EBP-Ig. Use of streptavidin coated plates allows the capture of the biotinylated EBP-Ig on the surface of a scintillant impregnated coated well (Flash plates, NEN-DuPont). […] The amount of light produced was quantified to estimate the amount of ligand binding. The specific assay format was suitable for the multi-well plate capacity of a Packard TopCount Microplate Scintillation counter.
Biotinylated EBP-Ig was prepared as follows. EBP-Ig (3 mL, OD280 2.9) was exchanged into 50 mM sodium bicarbonate, pH 8.5 using a Centriprep 10 ultrafiltration device. The final volume of the exchanged protein was 1.2 mL (OD280 2.6, representing about 2 mg total protein). 10 μL of a 4 mg/ml solution of NHS-LC-Biotin (Pierce) was added and the reaction mixture placed on ice in the dark for two hours. Unreacted biotin was removed by exchange of the reaction buffer into PBS in a Centriprep 10 device and the protein reagent aliquoted and stored at −70° C.
All wells were adjusted to a final DMSO concentration of 5%. […] After all additions were made, the plate was covered with an adhesive top seal and placed in the dark at room temperature overnight. The next day all liquid was aspirated from the wells to limit analyte dependent quench of the signal, and the plates were counted on a Packard TOPCOUNT Microplate Scintillation Counter. […] Corrected total binding (CTB) was calculated as: TB−NSB=CTB. […] Table 1 lists the average % inhibition, and if determined the IC50 and IC30 values for compounds of Formula I, where the compound numbers refer to the compounds in the tables accompanying the preparative examples.

[1] = 50 μM compound, Table 10, 50 µM
[2] = read-out: % inh @ 50 μM (Inhibition of EPO binding to EBP-Ig)
[3] = read-out: EPO/EBP-Ig % inh @ 50 μM, 50 μM compound, Table 10

## COC(=O)C(CCCCN)N(C/C=C/c1cccc(Oc2ccc(C(C)(C)C)cc2)c1)C/C=C/c1cccc(Oc2ccc(C(C)(C)C)cc2)c1 (stereo not shown) [compound 182]
50 μM compound, Table 9
  EPO/EBP-Ig % inh @ 50 μM: 18%

## COC(=O)C(CCCCNC(=O)OC(C)(C)C)N(C/C=C/c1cccc([N+](=O)[O-])c1)C/C=C/c1cccc([N+](=O)[O-])c1 (stereo not shown) [compound 183]
50 μM compound, Table 9
  EPO/EBP-Ig % inh @ 50 μM: 36%
  % inh @ 50 μM (Inhibition of EPO binding to EBP-Ig): 36%

## COC(=O)C(CCCCN)N(C/C=C/c1cccc([N+](=O)[O-])c1)C/C=C/c1cccc([N+](=O)[O-])c1 (stereo not shown) [compound 184]
  IC30 μM (Inhibition of EPO binding to EBP-Ig): 10 µM
  % inh @ 50 μM (Inhibition of EPO binding to EBP-Ig): 53%
50 μM compound, Table 9
  EPO/EBP-Ig % inh @ 50 μM: 53%

## COC(=O)C(CCCCN)N(C/C=C/c1cccc(N)c1)C/C=C/c1cccc(N)c1 (stereo not shown) [compound 185]
50 μM compound, Table 9
  EPO/EBP-Ig % inh @ 50 μM: 29%

## CCCCNC(=O)C(CCCCN)N(C/C=C/c1ccccc1)C/C=C/c1ccccc1 (stereo not shown) [compound 205]
50 μM compound, Table 10
  EPO/EBP-Ig % inh @ 50 μM: 26%

## CCCCNC(=O)C(CCCCNC(=O)c1ccccc1OC)N(C/C=C/c1ccccc1)C/C=C/c1ccccc1 (stereo not shown) [compound 206]
[1]
  EPO/EBP-Ig % inh @ 50 μM: 17%

## CCCCNC(=O)C(CCCCNC(=O)c1ccc(OC)cc1)N(C/C=C/c1ccccc1)C/C=C/c1ccccc1 (stereo not shown) [compound 207]
50 μM compound, Table 10
  EPO/EBP-Ig % inh @ 50 μM: 20%

## CCCCNC(=O)C(CCCCNC(=O)c1ccccc1)N(C/C=C/c1ccccc1)C/C=C/c1ccccc1 (stereo not shown) [compound 208]
50 μM compound, Table 10
  EPO/EBP-Ig % inh @ 50 μM: 22%

## CCCCNC(=O)C(CCCCNC(=O)c1ccccc1OC)N(C/C=C/c1ccccc1)C/C=C/c1ccccc1 (stereo not shown) [compound 209]
[1]
  EPO/EBP-Ig % inh @ 50 μM: 25%

## COc1ccc(CCNC(=O)C(CCCCN)N(CC=Cc2ccccc2)CC=Cc2ccccc2)cc1 (stereo not shown) [compound 211]
  IC30 μM (Inhibition of EPO binding to EBP-Ig): 20 µM
  IC50: 65 µM
[2]
  inhibition at 50 µM: 62%
[3]
  inhibition at 50 µM: 62%

## CCCNC(=O)C(CCCCN)N(C/C=C/c1ccccc1)C/C=C/c1ccccc1 (stereo not shown) [compound 212]
50 μM compound, Table 10
  EPO/EBP-Ig % inh @ 50 μM: −10%

## CC(C)(C)OC(=O)NCCCCC(C(=O)NCc1ccc(OCC=Cc2ccccc2)cc1)N(CC=Cc1ccccc1)CC=Cc1ccccc1 (stereo not shown) [compound 216]
50 μM compound, Table 10
  EPO/EBP-Ig % inh @ 50 μM: 10%

## NCCCCC(C(=O)NCc1ccc(OCC=Cc2ccccc2)cc1)N(CC=Cc1ccccc1)CC=Cc1ccccc1 (stereo not shown) [compound 220]
  IC30 μM (Inhibition of EPO binding to EBP-Ig): 30 µM
  % inh @ 50 μM (Inhibition of EPO binding to EBP-Ig): 45%
  IC50: 50 µM
50 μM compound, Table 10
  EPO/EBP-Ig % inh @ 50 μM: 45%

## COc1ccc(CCNC(=O)C(CCCCN)N(C/C=C/c2ccccc2)C/C=C/c2ccccc2)cc1OC (stereo not shown) [compound 221]
  IC30 μM (Inhibition of EPO binding to EBP-Ig): 10 µM
  % inh @ 50 μM (Inhibition of EPO binding to EBP-Ig): 48%
  IC50: 80 µM
50 μM compound, Table 10
  EPO/EBP-Ig % inh @ 50 μM: 48%

## COc1cccc(CCNC(=O)C(CCCCN)N(C/C=C/c2ccccc2)C/C=C/c2ccccc2)c1 (stereo not shown) [compound 222]
  IC30 μM (Inhibition of EPO binding to EBP-Ig): 5 µM
  % inh @ 50 μM (Inhibition of EPO binding to EBP-Ig): 56%
50 μM compound, Table 10
  EPO/EBP-Ig % inh @ 50 μM: 56%

## COc1ccccc1CCNC(=O)C(CCCCN)N(CC=Cc1ccccc1)CC=Cc1ccccc1 (stereo not shown) [compound 224]
  IC30 μM (Inhibition of EPO binding to EBP-Ig): 25 µM
  IC50: 50 µM
[2]
  inhibition at 50 µM: 51%
[3]
  inhibition at 50 µM: 51%

## COc1ccc(CCNC(=O)C(CCCCNC(=O)OC(C)(C)C)N(C/C=C/c2cccc(Oc3ccccc3)c2)C/C=C/c2cccc(Oc3ccccc3)c2)cc1 (stereo not shown) [compound 225]
50 μM compound, Table 10
  EPO/EBP-Ig % inh @ 50 μM: 10%

## NCCCCC(C(=O)NCCc1ccccc1)N(CC=Cc1ccccc1)CC=Cc1ccccc1 (stereo not shown) [compound 227]
  IC30 μM (Inhibition of EPO binding to EBP-Ig): 20 µM
  IC50: 50 µM
[2]
  inhibition at 50 µM: 48%
[3]
  inhibition at 50 µM: 48%

## COc1ccc(CCNC(=O)C(CCCCNC(=O)Nc2ccccc2)N(C/C=C/c2cccc(Oc3ccccc3)c2)C/C=C/c2cccc(Oc3ccccc3)c2)cc1 (stereo not shown) [compound 228]
50 μM compound, Table 10
  EPO/EBP-Ig % inh @ 50 μM: 21%

## COc1ccc(CCNC(=O)C(CCCCNC(=O)Nc2ccc(Oc3ccccc3)cc2)N(C/C=C/c2ccccc2)C/C=C/c2ccccc2)cc1 (stereo not shown) [compound 229]
50 μM compound, Table 10
  EPO/EBP-Ig % inh @ 50 μM: 22%
